Biological target: T1, 3-oxo-5-alpha-steroid 4-dehydrogenase 1 (Rattus norvegicus, UniProt P24008)
T1 sequence (P24008 whole entry): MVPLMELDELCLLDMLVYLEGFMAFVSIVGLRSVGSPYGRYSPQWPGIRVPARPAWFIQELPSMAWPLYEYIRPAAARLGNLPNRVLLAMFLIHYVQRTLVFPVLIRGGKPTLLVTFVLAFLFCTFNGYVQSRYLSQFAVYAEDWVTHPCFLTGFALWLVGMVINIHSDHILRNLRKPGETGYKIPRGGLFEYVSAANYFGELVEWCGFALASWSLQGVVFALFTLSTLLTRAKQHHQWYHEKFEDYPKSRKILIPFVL
Experiment: Inhibition of Sprague-Dawley rat liver steroid 5-alpha-reductase assessed as inhibition of testosterone conversion to dihydrotestosterone incubated for 30 mins by HPLC method

Compound	IC50 [µM]
C#C[C@]1(O)CC[C@H]2[C@@H]3CCc4cc(O)ccc4[C@H]3CC[C@@]21C [ETHINYL ESTRADIOL]	960
CC(C)=C1C/C=C(/C)CC/C=C(/C)CC1=O	1940

Source: ChEMBL document CHEMBL3352231, “Conformational analysis of an anti-androgenic, (E,E)-8-hydroxygermacrene B, using NOESY and dynamic NMR spectroscopy” (Bioorg Med Chem Lett, 2014)
